Source: PMC7926495, “Preclinical Pharmacokinetics and Biodistribution of Anticancer Dinuclear Palladium(II)-Spermine Complex (Pd2Spm) in Mice” (Pharmaceuticals, 2021)

Assays:
[1] = test system: MDA-MB-231 cells; assay: In vitro cellular drug uptake/accumulation by ICP-MS; type: cell-based, human; conditions: 24 h; for dependence of cellular drug uptake on drug concentration in medium: 2-8 µM
Protocol: (§1) The in vitro studies were performed on human triple-negative (lack of estrogen receptors, progesterone receptors and HER2 overexpression) breast cancer cell lines MDA-MB-231 and HCC-1143, which were purchased from the Leibniz Institute DSMZ-German Collection of Microorganisms and Cell Cultures GmbH, Germany. MDA-MB-231 were cultured in DMEM-HG cell culture medium supplemented with 10% (v/v) FBS, and HCC-1143 cells were cultured in RPMI-1640 cell culture medium supplemented with 20% (v/v) FBS. Cells were maintained in a sterile environment at 37 °C with a 5% CO2 humidified atmosphere and were routinely tested for mycoplasma contamination.
(§2) The intracellular Pt and Pd accumulation in MDA-MB-231 and HCC-1143 cells was analyzed using ICP-MS. First, 3 × 10^4/cm^2 cells were seeded in T75 culture flasks and allowed to attach for 24 h. […] The cells were trypsinized, washed twice with ice-cold 0.9% saline solution, and 10^6 cells were pelleted and freeze-dried. The lyophilized cell pellets were digested and analyzed using the same analytical procedure described for the pharmacokinetic study. […] The protein concentration used for the data normalization was determined from identical samples that were prepared in parallel and quantified with the Bradford protein assay.

[2] = test system: HCC-1143 cells; assay: as above; type: cell-based, human; conditions: 24 h; for dependence of cellular drug uptake on drug concentration in medium: 2-8 µM
Protocol: as §1, §2

[3] = parameters: species or system Balb/c mice; conditions: mouse, in vivo; for Tmax: ip
Protocol: After drug administration, five animals from each group were euthanized at selected time-points (0.5, 1, 6, 12, 24 and 48 h) with pentobarbital intraperitoneal injection (120 mg/kg) followed by cardiac puncture for blood collection. Blood serum was separated after leaving the blood to coagulate for 30 min at room temperature and centrifugation (at 500× g, and 4 °C for 15 min). […] Both blood serum and serum ultrafiltrate were aliquoted (50 μL) and stored at −80 °C until ICP-MS analysis. Right brain hemisphere, liver, lungs, heart, right kidney, ovaries, abdominal white adipose tissue and abdominal mammary glands were excised at the same time, washed in cold PBS, blotted dry on filter paper and weighed. Solid tissues were freeze-dried (0.016 mBar, −80.8 °C, 48 h; Telstar®, model Cryodos Barcelona, Spain) and stored hermetically sealed at −80 °C until ICP-MS analysis.
Briefly, 50 μL of blood serum, 50 μL of serum ultrafiltrate and weighed entire freeze-dried organs/tissues (up to 50 mg) were placed into 10 mL polypropylene conical tubes. In the case of liver, for which the weight surpassed 50 mg, the tissue was first pulverized with a Precellys® Evolution tissue homogenizer (Bertin-Instruments, Montigny-le-Bretonneux, France) using 2.8 mm stainless steel beads (two cycles of 10 s at 6000 rpm speed) and accurately weighed (50 mg) in tubes. Samples were digested directly in tubes with 0.9 mL of HNO3 (≥69.0% w/w) plus 0.3 mL of HCl (37% w/w) in a water bath at 90 °C for 1 h. Sample digests were cooled to room temperature, 0.5 mL of a 100 µg/L internal standards (IS) solution was added and the final volume was adjusted to 5 mL with ultrapure water (final concentration of IS = 10 µg/L). Prior to ICP-MS analysis, samples were further diluted 5-fold with a diluent solution (2% HNO3 + 3% HCl + 10 µg/L IS). An iCAP^TM Q (Thermo Fisher Scientific, Bremen, Germany) ICP-MS was used for the determination of Pd and Pt in the obtained solutions. Calibration standards ranging from 0.025 to 100 µg/L were prepared from the 100 mg/L multi-element commercial TraceCERT®, ICH Q3D oral, Standard 2 solution. The IS solution was prepared at 100 µg/L by appropriate dilution of the ICP-MS-200.8-IS-1 solution.
The mean concentrations of Pd or Pt in serum and serum ultrafiltrate were plotted logarithmically versus time. Non-compartmental analysis was performed on sparse data with 1/Y^2 weighting, which was selected based on the highest correlation coefficients and agreement between observed versus predicted pharmacokinetic parameters. […] The area under the curve (AUC) from time zero to the last time with quantified concentration (AUC0-48h) was calculated by a linear log trapezoidal (linear up log down) method. The AUC from time zero to infinity (AUC0−∞) was extrapolated as AUC0−48 h + C48h/λz, where C48h is the last measured concentration, and λz is the elimination constant rate calculated using linear regression of the terminal portion of the log–linear serum concentration–time curve. The drug half-life (t1/2) was calculated as ln2/λz. The rate of total clearance (CL/F) of the compound was calculated as the administered metal dose divided by the AUC0−∞. The distribution volume based on the terminal phase (Vz/F) was calculated as dose/[λz.AUC0−∞].

[4] = mouse, in vivo
Protocol: After drug administration, five animals from each group were euthanized at selected time-points (0.5, 1, 6, 12, 24 and 48 h) with pentobarbital intraperitoneal injection (120 mg/kg) followed by cardiac puncture for blood collection. Blood serum was separated after leaving the blood to coagulate for 30 min at room temperature and centrifugation (at 500× g, and 4 °C for 15 min). […] Both blood serum and serum ultrafiltrate were aliquoted (50 μL) and stored at −80 °C until ICP-MS analysis. Right brain hemisphere, liver, lungs, heart, right kidney, ovaries, abdominal white adipose tissue and abdominal mammary glands were excised at the same time, washed in cold PBS, blotted dry on filter paper and weighed. […]
The mean concentrations of Pd or Pt in serum and serum ultrafiltrate were plotted logarithmically versus time. […] The area under the curve (AUC) from time zero to the last time with quantified concentration (AUC0-48h) was calculated by a linear log trapezoidal (linear up log down) method. […] The drug half-life (t1/2) was calculated as ln2/λz. The rate of total clearance (CL/F) of the compound was calculated as the administered metal dose divided by the AUC0−∞. The distribution volume based on the terminal phase (Vz/F) was calculated as dose/[λz.AUC0−∞].

[5] = test system: plasma proteins; conditions: mouse, in vivo
Protocol: After drug administration, five animals from each group were euthanized at selected time-points (0.5, 1, 6, 12, 24 and 48 h) with pentobarbital intraperitoneal injection (120 mg/kg) followed by cardiac puncture for blood collection. Blood serum was separated after leaving the blood to coagulate for 30 min at room temperature and centrifugation (at 500× g, and 4 °C for 15 min). […] Both blood serum and serum ultrafiltrate were aliquoted (50 μL) and stored at −80 °C until ICP-MS analysis.
Briefly, 50 μL of blood serum, 50 μL of serum ultrafiltrate and weighed entire freeze-dried organs/tissues (up to 50 mg) were placed into 10 mL polypropylene conical tubes. In the case of liver, for which the weight surpassed 50 mg, the tissue was first pulverized with a Precellys® Evolution tissue homogenizer (Bertin-Instruments, Montigny-le-Bretonneux, France) using 2.8 mm stainless steel beads (two cycles of 10 s at 6000 rpm speed) and accurately weighed (50 mg) in tubes. Samples were digested directly in tubes with 0.9 mL of HNO3 (≥69.0% w/w) plus 0.3 mL of HCl (37% w/w) in a water bath at 90 °C for 1 h. Sample digests were cooled to room temperature, 0.5 mL of a 100 µg/L internal standards (IS) solution was added and the final volume was adjusted to 5 mL with ultrapure water (final concentration of IS = 10 µg/L). […]

[6] = test system: H2AX histone (γH2AX); parameters: method as in PMID 21371266; conditions: cited from earlier work
[7] = test system: albumin / plasma proteins; conditions: rodents, 3 h post-administration; cited from earlier work

SMILES	dependence of cellular drug uptake on drug concentration in medium [1]	dependence of cellular drug uptake on drug concentration in medium [2]	concentration of free Pd/Pt in serum ultrafiltrate at 48 h [3]	Tmax [3]	intracellular accumulation compared to cisplatin ([1]; equimolar 2-8 µM)	intracellular accumulation compared to cisplatin ([2]; equimolar 2-8 µM)	higher accumulation of Pd relative to Pt [4]	lower accumulation of Pd than Pt (dose-normalized AUC) [4]	decrease of fraction bound to plasma proteins at 48 h compared to the preceding period [5]	phosphorylation of H2AX histone (γH2AX) compared to cisplatin [6]	bound to albumin (mostly via irreversible covalent bonds) [7]
N.N.[Cl][Pt][Cl] [Cisplatin, cis-dichlorodiammine platinum(II), reference compound]	increase linearly with drug concentration	increase linearly with drug concentration	4.1 ng/mL	30 min	–	–	–	–	–	–	–
[Cl][Pd-2]1([Cl])[NH2+]CCC[NH+]1CCCC[NH+]1CCC[NH2+][Pd-2]1([Cl])[Cl] (stereo not drawn) [Pd2Spm]	increase linearly with drug concentration	increase linearly with drug concentration	2.3 ng/mL	30 min	lower intracellular Pd2Spm increase as compared to cisplatin	lower intracellular Pd2Spm increase as compared to cisplatin	74.2%	82.7%	3.1%	more extensive phosphorylation of H2AX histone	–
O=C(O)C(=O)O.[NH-][C@@H]1CCCC[C@H]1[NH-].[Pt+2] [oxaliplatin]	–	–	–	–	–	–	–	–	–	–	> 85%
